Reference: patent US10869846B2, “N-acetylcysteine amide (NAC amide) in the treatment of diseases and conditions associated with oxidative stress” (SENTIENT LIFESCIENCES, INC., priority 2005, dated 2020)
Several values for one entry are separate records, joined by “and”; a condition that tells them apart may be missing. Equal entries are not always repeated. Marks after values point to notes of the source that are not given here.

Columns and labels:
Sprague Dawley rats [1] = test: GSH and CYS levels in tissues after 6Gy total-body x-ray radiation; type: in vivo, rat; settings: for CYS level / GSH level / CYS Mean / GSH Mean: 6Gy total-body x-ray, 500 mg/kg orally; for CYS level / GSH level: individual animals; for CYS Mean / GSH Mean: n = 3
Description: (§1) Animal studies: The irradiation of rats was performed at the Radiation Oncology Department of the Phelps County Regional Medical Center in Rolla, Mo., using a 16 MeV beam generated by a Varian linear accelerator, model Clinac 1800, and in accordance with the standards of humane laboratory animal protocols. A 20×20 or 25×25 cm field was used and output factors were checked once a week. Twelve animals were divided into 4 groups each containing 3 animals (Control, XRT, NAC amide+XRT and NAC+XRT). The radiation (XRT) control received whole body irradiation by 6 Gy of 16 MeV electrons. The NAC amide+XRT group received 500 mg/kg/day NAC amide immediately before irradiation and for three days after until sacrifice. The rats were anesthetized and heparinized blood was collected via cardiopuncture. Following sacrifice, liver, lung, brain and spleen were removed and stored at −70° C. until homogenization.
(§2) All experiments were performed using adult Albino SASCO Sprague Dawley female rats weighing about 250 g, which were purchased from Charles River Laboratories Inc. (Portage, Mich.). Twelve rats were shipped in paper crates (4 in each crate). Rats were delivered with a certificate including serological, bacteriological, pathological parasitological information. They were divided into 4 cages (3 rats in each cage) and kept in a temperature controlled (20° C.) room equipped to maintain a 12 h light-dark cycle. Standard rat chow (Purina rat chow) and tap water were supplied in individual glass bottle and given ad libitum. Water was changed daily. Weights of the animal were taken before giving the NAC amide treatment solution and amount of food eaten and water consumed was not measured because NAC amide was given orally but not in the drinking water or food.
(§3) NAC amide was provided by Novetide Ltd (Haifa Bay, Israel) including certificate of analysis and MSDS (lot #40233-64). NAC amide feeding solution was prepared freshly each day right before the administration by weighing 1.25 g NAC amide solid sample (Type HR-120 electronic balance, A&D Company limited, Japan. S/N: 12202464) and adding into 10 ml PBS solution and put on ice. One ml of this solution was administrated (gavaged) per rat orally by using animal feeding biomedical needles and 3 ml BD Luer-Lok Tip syringes. Rats received one-dose total-body 6 Gy/16 MeV x-ray radiation and 3 rats in each group were held in a covered bucket and received radiation at the same time. Each day at the same time, 500 mg/Kg body weight of NAC amide was administrated to the animals.
For GSH and CYS levels, 250 μL tissue homogenate was used to react with 750 μL NPM solution, therefore, the total volume was 1000 μL.
Oxidative Stress Parameters in Animals: After the blood samples were drawn, the animals were perfused by a cold antioxidant buffer first and then liver, brain and kidney samples were collected aseptically, rinsed in ice-cold saline and placed in petri dishes maintained on ice. The tissue samples kept at −70° C. for the GSH, GSSG, and MDA determinations were made.
(§4) Glutathione (GSH) and Glutathione Disulfide (GSSG) Determination: Cells or tissue samples were homogenized on ice and derivatized with N-(1-pyrenyl)-maleimide (NPM). The derivatized samples were injected onto a 3 μm C18 column (Column Engineering) in a reverse phase HPLC system with a mobile phase of 35% water, 65% acetonitrile containing 1 mL/L of acetic acid and o-phosphoric acid (R. Winters, et al., Anal. Biochem., 227:14-21 (1995) and H. H. Draper et al., Free Rad. Biol. Med., 15:353-363 (1993)). Malondialdehyde (MDA) determinations were made as described in J. Gutteridge, Anal. Biochem., 69: 518-526 (1975).

Sprague Dawley rats [2] = test: MDA levels in tissues after 6Gy total-body x-ray radiation; type: in vivo, rat; settings: for MDA level / MDA Mean: 6Gy total-body x-ray, 500 mg/kg orally; for MDA level: individual animals; for MDA Mean: n = 3; for lung MDA levels: treatment concurrent with irradiation, versus irradiation alone
Description: as §1, §2, §3
For MDA levels, 350 μL tissue homogenate was used to react with 100 μL of 500 ppm BHT solution and 550 μL solution of 10% TCA solution, therefore, the total volume here was 1000 μL. After boiling the whole solution, 500 μL was taken out and react with 500 μL TBA and the total volume here was 1000 μL also.
as §4

PC12 cells = test: GSH measurement in cells (NPM/HPLC); type: cell-based
Description: Cells were seeded at a density of 80,000 cells/cm^2 on poly-D-lysine coated (0.05 mg/ml) 75 cm^2 flasks (5 ml/flask) for GSH measurement. […] After the incubation period, cells were removed from the cultures and homogenized in serine borate buffer (100 mM Tris-HCl, 10 mM boric acid, 5 mM L-serine, 1 mM DETAPAC, pH 7.4). Twenty (20) μl of the diluted cell homogenate were added to 230 μl of serine borate buffer and 750 μl of NPM (1 mM in acetonitrile). The resulting solutions were incubated at room temperature for 5 min. The reaction was stopped by the addition of 5 μl of 2N HCl. The samples were then filtered through a 0.2 μm Acrodisc filter and injected onto the HPLC system.
[…] Values represent means.+−.SD. Statistically different values of *P<0.05 were determined, compared to control. **P<0.001 compared to glutamate-treated group. ***P<0.05 compared to glutamate-treated group.

mice = test: GSH and cysteine levels after administration to mice; type: in vivo; settings: 30 minutes after administration
[3] = BRAIN, listed as AD4, 500 mg/kg
[4] = KIDNEY, listed as AD4, 500 mg/kg
[5] = LIVER, listed as AD4, 500 mg/kg
[6] = PLASMA, listed as AD4, 500 mg/kg

## CC(=O)N[C@@H](CS)C(=O)O [NAC, N-acetylcysteine]
Sprague Dawley rats [1]; BRAIN, 500 mg/kg
  CYS level: 4.16 nmol/mg and 3.76 nmol/mg and 4.47 nmol/mg
  GSH level: 7.32 nmol/mg and 6.74 nmol/mg and 7.15 nmol/mg
Sprague Dawley rats [1]; BRAIN
  CYS Mean: 4.1 nmol/mg
  GSH Mean: 7.0 nmol/mg
Sprague Dawley rats [1]; KIDNEY, 500 mg/kg
  CYS level: 12.23 nmol/mg and 12.16 nmol/mg and 11.03 nmol/mg
  GSH level: 5.95 nmol/mg and 6.44 nmol/mg and 6.33 nmol/mg
Sprague Dawley rats [1]; KIDNEY
  CYS Mean: 11.8** nmol/mg
  GSH Mean: 6.2** nmol/mg
Sprague Dawley rats [1]; LIVER, 500 mg/kg
  CYS level: 1.25 nmol/mg and 1.61 nmol/mg and 1.51 nmol/mg
  GSH level: 15.23 nmol/mg and 16.80 nmol/mg and 16.93 nmol/mg
Sprague Dawley rats [1]; LIVER
  CYS Mean: 1.5 nmol/mg
  GSH Mean: 16.3 nmol/mg
Sprague Dawley rats [1]; LUNG, 500 mg/kg
  CYS level: 1.16 nmol/mg and 2.64 nmol/mg and 2.43 nmol/mg
  GSH level: 5.19 nmol/mg and 7.24 nmol/mg and 4.95 nmol/mg
Sprague Dawley rats [1]; LUNG
  CYS Mean: 1.9 nmol/mg
  GSH Mean: 5.8 nmol/mg
Sprague Dawley rats [1]; PLASMA, 500 mg/kg
  CYS level: 14.64 nmol/mg and 13.75 nmol/mg and 14.36 nmol/mg
  GSH level: 7.08 nmol/mg and 6.18 nmol/mg and 6.27 nmol/mg
Sprague Dawley rats [1]; PLASMA
  CYS Mean: 14.2*** nmol/mg
  GSH Mean: 6.5**/*** nmol/mg
Sprague Dawley rats [1]; after radiation exposure
  GSH levels in tissues: does not increase
Sprague Dawley rats [2]; BRAIN, 500 mg/kg
  MDA level: 6.42 nmol/100 mg and 6.69 nmol/100 mg and 5.33 nmol/100 mg
Sprague Dawley rats [2]; BRAIN
  MDA Mean: 6.15 nmol/100 mg
Sprague Dawley rats [2]; KIDNEY, 500 mg/kg
  MDA level: 1.76 nmol/100 mg and 1.78 nmol/100 mg and 1.41 nmol/100 mg
Sprague Dawley rats [2]; KIDNEY
  MDA Mean: 1.65** nmol/100 mg
Sprague Dawley rats [2]; LIVER, 500 mg/kg
  MDA level: 5.1 nmol/100 mg (2×) and 5.02 nmol/100 mg
Sprague Dawley rats [2]; LIVER
  MDA Mean: 5.07**/*** nmol/100 mg
Sprague Dawley rats [2]; LUNG, 500 mg/kg
  MDA level: 2.58 nmol/100 mg and 2.34 nmol/100 mg and 2.63 nmol/100 mg
Sprague Dawley rats [2]; LUNG
  MDA Mean: 2.52** nmol/100 mg
Sprague Dawley rats [2]
  lung MDA levels: did not change the MDA levels significantly

## N-acetylcysteine amide [NAC amide]
PC12 cells; 750 μM, 24 hour treatment
  increase of PC12 cell GSH level compared to the control group: two fold
PC12 cells; GLU (10 mM) + BSO (0.2 mM) + NAC amide (750 μM)
  GSH Levels: 30 ± 4.3 nM/mg protein
PC12 cells; GLU (10 mM) + NAC amide (750 μM)
  GSH Levels: 88 ± 11.0 nM/mg protein
PC12 cells; NAC amide (750 μM) alone
  GSH Levels: 112 ± 17.8 nM/mg protein
PC12 cells; glutamate + BSO (0.2 mM)
  cells' GSH levels maintained in GSH synthesis-arrested cells: 56%
mice
  GSH and cysteine levels: Increases
Sprague Dawley rats [1]; [3]
  CYS level: 4.47 nmol/mg and 4.32 nmol/mg and 4.26 nmol/mg
  GSH level: 7.93 nmol/mg and 7.84 nmol/mg and 6.98 nmol/mg
Sprague Dawley rats [1]; BRAIN
  CYS Mean: 4.4 nmol/mg
  GSH Mean: 7.6** nmol/mg
Sprague Dawley rats [1]; [4]
  CYS level: 16.91 nmol/mg and 11.09 nmol/mg and 10.81 nmol/mg
  GSH level: 4.39 nmol/mg and 6.22 nmol/mg and 5.02 nmol/mg
Sprague Dawley rats [1]; KIDNEY
  CYS Mean: 12.9** nmol/mg
  GSH Mean: 5.2 nmol/mg
Sprague Dawley rats [1]; [5]
  CYS level: 1.51 nmol/mg and 1.53 nmol/mg (2×)
  GSH level: 17.45 nmol/mg and 16.73 nmol/mg and 17.50 nmol/mg
Sprague Dawley rats [1]; LIVER
  CYS Mean: 1.5 nmol/mg
  GSH Mean: 17.2** nmol/mg
Sprague Dawley rats [1]; LUNG, listed as AD4, 500 mg/kg
  CYS level: 1.43 nmol/mg and 1.61 nmol/mg and 0.91 nmol/mg
  GSH level: 5.12 nmol/mg and 5.27 nmol/mg and 6.28 nmol/mg
Sprague Dawley rats [1]; LUNG
  CYS Mean: 1.3 nmol/mg
  GSH Mean: 5.6 nmol/mg
Sprague Dawley rats [1]; [6]
  CYS level: 16.00 nmol/mg and 15.45 nmol/mg and 15.40 nmol/mg
  GSH level: 7.10 nmol/mg and 7.44 nmol/mg and 7.94 nmol/mg
Sprague Dawley rats [1]; PLASMA
  CYS Mean: 15.6** nmol/mg
  GSH Mean: 7.6** nmol/mg
Sprague Dawley rats [1]; after radiation exposure
  thiol levels in plasma and liver: significantly increases
Sprague Dawley rats [2]; [3]
  MDA level: 5.79 nmol/100 mg and 5.53 nmol/100 mg and 5.13 nmol/100 mg
Sprague Dawley rats [2]; BRAIN
  MDA Mean: 5.48 nmol/100 mg
Sprague Dawley rats [2]; [4]
  MDA level: 1.96 nmol/100 mg and 1.45 nmol/100 mg
Sprague Dawley rats [2]; KIDNEY, listed as AL4, 500 mg/kg
  MDA level: 1.5 nmol/100 mg
Sprague Dawley rats [2]; KIDNEY
  MDA Mean: 1.64** nmol/100 mg
Sprague Dawley rats [2]; [5]
  MDA level: 4.14 nmol/100 mg and 4.65 nmol/100 mg and 4.36 nmol/100 mg
Sprague Dawley rats [2]; LIVER
  MDA Mean: 4.38** nmol/100 mg
Sprague Dawley rats [2]; LUNG, listed as AD4, 500 mg/kg
  MDA level: 1.72 nmol/100 mg and 1.58 nmol/100 mg and 1.28 nmol/100 mg
Sprague Dawley rats [2]; LUNG
  MDA Mean: 1.53** nmol/100 mg
Sprague Dawley rats [2]
  lung MDA levels: significantly lowered
